Data reported in patent US8686000B2, “Herbicidally active ketosultams and diketopyridines” (Bayer Cropscience AG, priority 2010, dated 2014).

What follows are molecules tested on corn (assay: Post-emergence compatibility with crop plants). Details: 320 grams per hectare, scored visually after 3 to 4 weeks.
Assay type: in vivo
Protocol: Post-emergence herbicidal action against weed plants and compatibility with crop plants Seeds of monocotyledonous and dicotyledonous weed plants are set out in cardboard pots in sandy loam soil, covered with soil, and cultivated under glass under good growth conditions. Two to three weeks after sowing, the trial plants are treated at the three-leaf stage. The inventive compounds, formulated as wettable powders or as emulsifiable concentrates, are sprayed onto the surface of the green parts of the plants, at a water application rate of 600 to 800 I/ha (converted). After the trial plants have stood for 3 to 4 weeks under glass under optimum growth conditions, the effect of the inventive compounds is scored visually.

**Q.** With `CCc1cc(Cl)cc(Br)c1-c1c(O)c2scnc2n(CC(F)F)c1=O` [I-a-36] as the molecule, how does the damage in corn read?
**A.** Its damage in corn is “do not exhibit any damage”.

**Q.** How did the damage in corn turn out when `Cc1ccc(Cl)c(-c2c(O)c3scnc3n(CC(F)(F)F)c2=O)c1Cl` [I-a-86] was run?
**A.** Its damage in corn is “do not exhibit any damage”.

**Q.** For `Cc1cc(C)c(-c2c(O)c3scnc3n(CC(F)F)c2=O)c(C)c1` [I-a-37], which damage in corn is on record?
**A.** Its damage in corn is “do not exhibit any damage”.

**Q.** How did the damage in corn turn out when `C#CCn1c(=O)c(-c2c(Cl)cccc2Cl)c(O)c2scnc21` [I-a-44] was run?
**A.** The damage in corn was “do not exhibit any damage”.

**Q.** With `C#CCOc1c(-c2ccccc2C(F)(F)F)c(=O)n(CC#C)c2ncsc12` [I-h-11] as the molecule, how does the damage in corn read?
**A.** Its damage in corn is “do not exhibit any damage”.

**Q.** `C[N+](C)(C)C.Cc1cc(C)c(-c2c([O-])c3scnc3n(CC(F)F)c2=O)c(C)c1` [I-g-5] was tested. Which damage in corn did it give?
**A.** The damage in corn was “do not exhibit any damage”.

**Q.** Which damage in corn does the source give for `Cc1c(Br)ccc(Cl)c1-c1c(O)c2scnc2n(C)c1=O` [I-a-93] here?
**A.** The damage in corn was “do not exhibit any damage”.

**Q.** For `O=c1c(-c2c(Cl)ccc(C3CC3)c2Cl)c(O)c2scnc2n1CC(F)F` [I-a-83], which damage in corn is on record?
**A.** Its damage in corn is “do not exhibit any damage”.

What follows are molecules tested on oilseed rape (assay: Pre-emergence compatibility with crop plants). Details: 320 grams per hectare, scored visually after 3 to 4 weeks.
Assay type: in vivo
Excerpt: (§1) Pre-emergence Herbicidal Action against Weed Plants and Compatibility with Crop Plants
(§2) Seeds or rhizome sections of mono- and dicotyledonous weed plants are set out in pots of 9 to 13 cm in diameter in sandy loam soil, and are covered with soil. The herbicides, formulated as emulsifiable concentrates or dusting products, are applied to the surface of the covering earth in different doses in the form of aqueous dispersions or suspensions or emulsions, at a water application rate of 300 to 800 I/ha (converted). The pots are then maintained under glass under optimum conditions for the further cultivation of the plants. After the trial plants have stood for 3 to 4 weeks under glass under optimum growth conditions, the effect of the inventive compounds is scored visually.

**Q.** `C=CCn1c(=O)c(-c2c(C)cc(C)cc2C)c(O)c2scnc21` [I-a-2, 4-allyl-7-hydroxy-6-mesityl[1,3]thiazolo[4,5-b]pyridin-5(4H)-one] was tested. Which “damage in oilseed rape” value did it give?
**A.** Its value is “do not exhibit any damage”.

**Q.** `CCc1cc(Cl)cc(Br)c1-c1c(O)c2cn(C)nc2n(CC(F)F)c1=O` [I-a-43] was tested. Which “damage in oilseed rape” value did it give?
**A.** The value was “do not exhibit any damage”.

**Q.** `C=CCn1c(=O)c(-c2c(Br)cc(Cl)cc2CC)c(O)c2cn(C)nc21` [I-a-28] was tested. Which “damage in oilseed rape” value did it give?
**A.** Its value is “do not exhibit any damage”.

Each molecule was assayed on corn (assay: Pre-emergence compatibility with crop plants). Details: 320 grams per hectare, scored visually after 3 to 4 weeks.
Assay type: in vivo
Excerpt: as §1, §2

**Q.** For `O=c1c(-c2c(Cl)ccc(Br)c2Cl)c(O)c2scnc2n1CC(F)F` [I-a-75], which damage in corn is on record?
**A.** The damage in corn was “do not exhibit any damage”.

**Q.** For `CCc1cc(Cl)cc(Br)c1-c1c(O)c2scnc2n(CC(F)F)c1=O` [I-a-36], which damage in corn is on record?
**A.** The damage in corn was “do not exhibit any damage”.

**Q.** For `Cc1cc(Br)cc(C)c1-c1c(O)c2scnc2n(CC(F)F)c1=O` [I-a-97], which damage in corn is on record?
**A.** Its damage in corn is “do not exhibit any damage”.

**Q.** Which damage in corn does the source give for `Cc1c(Br)ccc(Cl)c1-c1c(O)c2scnc2n(CC(F)F)c1=O` [I-a-94] here?
**A.** The damage in corn was “do not exhibit any damage”.

**Q.** `Cc1ccc(Cl)c(-c2c(O)c3scnc3n(CC(F)F)c2=O)c1Cl` [I-a-89] was tested. Which damage in corn did it give?
**A.** Its damage in corn is “do not exhibit any damage”.

**Q.** Which damage in corn does the source give for `C#CCn1c(=O)c(-c2c(Cl)cccc2Cl)c(O)c2scnc21` [I-a-44] here?
**A.** Its damage in corn is “do not exhibit any damage”.

**Q.** With `CCOC(=O)Oc1c(-c2c(C)cc(Br)cc2CC)c(=O)n(C)c2ncsc12` [I-c-38] as the molecule, how does the damage in corn read?
**A.** The damage in corn was “do not exhibit any damage”.

**Q.** `C=CCn1c(=O)c(-c2c(Br)cc(Cl)cc2CC)c(OC(=O)C(C)(C)C)c2scnc21` [I-b-22] was tested. Which damage in corn did it give?
**A.** The damage in corn was “do not exhibit any damage”.
